Assay results reported in patent publication US20180177872A1, “Combination of PD-1 antagonist with an EGFR inhibitor” (priority 2015, published 2018).

What was measured:
[1] = tested on: TEC-family kinases (ITK, TEC, and TXK); assay: Cellular IL-2 production assay in Jurkat cells; format: cell-based; conditions: Homo sapiens, CD3/CD28 stimulation, read-out: IC50, IL2-Production
Experimental: The cellular IL-2 Production assay was carried out using Jurkat cells. Upon CD3/CD28 stimulation overnight in the presence of various concentrations of compound, the IL-2 content in the conditioned media was measured by ELISA, and compound IC50 was determined.

[2] = tested on: mouse CD4+ T cells; assay: Mouse CD4 T cell proliferation assay; format: cell-based; conditions: Cellular
[3] = tested on: primary human CD4+ T cells; assay: Human CD4 T cell proliferation assay; format: cell-based; conditions: Cellular
Experimental: In the Human CD4 T cell assay, primary human CD4+ T cells isolated from a leukopak were cultured in the presence of anti-CD3/anti-CD28 beads to stimulate T cell proliferation. After 4 days, cell viability was measured using Cell Titer Glo.

[4] = tested on: mouse B cells; assay: Mouse B cell proliferation assay; format: cell-based; conditions: Cellular
Experimental: In the Mouse B cell assay, B cells are purified from mouse splenocytes and plated in the tissue culture plates with supplement of anti-IgM and m-IL4. […] After 3 days, cell viability was measured using Cell Titer Glo.

[5] = tested on: TMD-8 cells (BTK); assay: BTK-dependent TMD-8 cell proliferation assay; format: cell-based; conditions: Homo sapiens, TMD8, Cellular
Experimental: After 3 days, cell viability was measured using Cell Titer Glo.

[6] = target: T1, TEC (Homo sapiens, UniProt P42680); assay: TEC biochemical assay (Caliper LabChip)
T1 sequence (P42680 1-631): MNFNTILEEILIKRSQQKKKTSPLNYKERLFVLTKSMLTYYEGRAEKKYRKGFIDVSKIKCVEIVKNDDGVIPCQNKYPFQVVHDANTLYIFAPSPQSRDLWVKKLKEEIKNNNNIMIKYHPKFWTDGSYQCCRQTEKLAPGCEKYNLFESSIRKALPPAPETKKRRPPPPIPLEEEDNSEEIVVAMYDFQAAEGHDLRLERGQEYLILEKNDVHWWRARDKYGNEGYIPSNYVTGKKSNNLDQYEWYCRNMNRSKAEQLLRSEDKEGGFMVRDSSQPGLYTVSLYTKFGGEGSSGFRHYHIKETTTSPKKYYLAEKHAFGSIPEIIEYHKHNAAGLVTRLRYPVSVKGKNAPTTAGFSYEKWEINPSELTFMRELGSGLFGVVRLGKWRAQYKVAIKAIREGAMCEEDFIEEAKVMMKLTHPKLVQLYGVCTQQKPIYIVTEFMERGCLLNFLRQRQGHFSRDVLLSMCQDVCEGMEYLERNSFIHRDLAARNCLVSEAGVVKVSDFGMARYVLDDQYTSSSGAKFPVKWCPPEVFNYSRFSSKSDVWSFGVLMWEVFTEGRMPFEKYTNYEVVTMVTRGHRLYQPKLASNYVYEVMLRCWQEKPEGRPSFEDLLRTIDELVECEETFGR

[7] = target: T2, TXK (Homo sapiens, UniProt P42681); assay: TXK biochemical assay (Caliper LabChip)
T2 sequence (P42681 1-527): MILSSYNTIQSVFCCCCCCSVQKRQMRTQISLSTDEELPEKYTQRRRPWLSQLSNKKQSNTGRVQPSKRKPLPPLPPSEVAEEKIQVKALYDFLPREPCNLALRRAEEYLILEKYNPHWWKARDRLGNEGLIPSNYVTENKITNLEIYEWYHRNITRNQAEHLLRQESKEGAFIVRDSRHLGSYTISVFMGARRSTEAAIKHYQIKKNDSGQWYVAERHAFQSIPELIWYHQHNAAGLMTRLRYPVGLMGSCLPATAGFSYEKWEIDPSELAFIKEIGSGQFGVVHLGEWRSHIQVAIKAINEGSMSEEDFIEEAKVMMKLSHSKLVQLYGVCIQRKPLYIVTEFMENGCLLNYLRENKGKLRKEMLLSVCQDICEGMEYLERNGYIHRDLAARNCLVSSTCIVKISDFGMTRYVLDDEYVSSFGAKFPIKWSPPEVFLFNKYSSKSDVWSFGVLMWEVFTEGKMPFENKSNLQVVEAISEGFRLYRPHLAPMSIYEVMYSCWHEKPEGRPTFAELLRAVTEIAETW

[8] = tested on: T-cell dependent antibody response; assay: T-cell dependent antibody response (TDAR) assay with KLH; conditions: for anti-KLH IgG mean percent difference compared to vehicle controls / anti-KLH IgM mean percent difference compared to vehicle controls: 30 mg/kg/day
[9] = target: human PD-1 protein (Homo sapiens, UniProt Q15116); assay: Biacore binding on human PD-1 protein; conditions: Biacore method
Experimental: The binding of an exemplary humanized anti-PD-1 antibodies including Clone B and Clone E as shown in Table 1 on human PD-1 protein was measured using Biacore method.

[10] = Iso-electric focussing (Novex IEF) analysis; format: physicochemical; conditions: estimated from staining positions against the IEF 3-10 marker
Experimental: Non-reduced samples of Protein A purified antibody were electrophoresed as described below.
5 μg of Protein A purified samples were electrophoresed on a 1.0 mm Novex pH 3-10 gradient gel (Invitrogen, EC66552BOX) using manufacturers recommended running conditions. A 10 μl aliquot of IEF pH 3-10 markers (Invitrogen, 39212-01) was included on the gel. Once electrophoresed, gels were fixed with 10% TCA solution for 30 min and then stained with InstantBlue (TripleRed, ISB01L) over night at room temperature. Images of the stained gels were analysed on a BioSpectrum Imaging System (UVP).

[11] = Pharmacokinetic (PK) modeling of flat dosing schedules
[12] = target: cynomolgus PD-1 protein (cynomolgus, UniProt B0LAJ3 25-170); assay: Biacore, cynomolgus PD-1
[13] = target: T3, human PD-1 protein (human, UniProt Q15116 25-167, limits assumed); assay: Biacore, human PD-1 protein
T3 construct: Soluble protein in the Biacore assay

[14] = target: T4, human PD-1 expressed on 300.19 cells (human, UniProt Q15116 25-288); assay: blocking of PD-L1 binding on human PD-1-expressing 300.19 cells; competitor PD-L1
T4 construct: whole, on cells; also called human PD-1-expressing 300.19 cells
T4 sequence (Q15116 25-288): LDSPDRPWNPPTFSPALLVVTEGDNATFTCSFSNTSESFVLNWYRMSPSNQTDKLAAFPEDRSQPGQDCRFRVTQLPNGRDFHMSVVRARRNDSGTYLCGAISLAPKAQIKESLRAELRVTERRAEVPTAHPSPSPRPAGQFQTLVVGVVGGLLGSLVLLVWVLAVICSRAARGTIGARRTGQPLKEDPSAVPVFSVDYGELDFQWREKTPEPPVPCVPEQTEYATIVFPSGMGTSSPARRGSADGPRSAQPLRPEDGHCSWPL

Sequence of human PD-1 protein (Homo sapiens, UniProt Q15116) (Q15116 25-288): as above
T3 sequence (Q15116 25-167 limits assumed): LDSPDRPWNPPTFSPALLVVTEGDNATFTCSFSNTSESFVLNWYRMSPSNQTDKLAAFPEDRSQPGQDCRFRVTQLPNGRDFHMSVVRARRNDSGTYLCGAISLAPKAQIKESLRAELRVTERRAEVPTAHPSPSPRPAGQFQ
Sequence of cynomolgus PD-1 protein (B0LAJ3 entry or part of it limits assumed): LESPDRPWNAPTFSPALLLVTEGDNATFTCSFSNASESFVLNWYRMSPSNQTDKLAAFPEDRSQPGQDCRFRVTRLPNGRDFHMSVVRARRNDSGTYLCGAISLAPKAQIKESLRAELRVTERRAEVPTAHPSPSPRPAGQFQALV

Q: With `Cc1cc(C(=O)Nc2nc3cccc(Cl)c3n2[C@@H]2CCCCN(C(=O)/C=C/CN(C)C)C2)ccn1` [Compound A, (R,E)-N-(7-chloro-1-(1-(4-(dimethylamino)but-2-enoyl)azepan-3-yl)-1Hbenzo[d]imidazol-2-yl)-2-methylisonicotinamide] as the molecule, how does the IC50 [1] read?
A: The IC50 was 21 nM.

Q: And the IC50 [2]?
A: The IC50 was 107 nM.

Q: And the IC50 [3]?
A: The IC50 was 140 nM.

Q: And the IC50 [4]?
A: Its IC50 is 295 nM.

Q: What about the IC50 [5] of the same molecule?
A: Its IC50 is 224 nM.

Q: What about the IC50 [6] of the same molecule?
A: The IC50 was 0.9 nM.

Q: What about the “IC50, TEC” value ([6]; Biochemical) of the same molecule?
A: Its value is “single digit nM”.

Q: And the IC50 [7]?
A: The IC50 was 2 nM.

Q: What about the “IC50, TXK” value ([7]; Biochemical) of the same molecule?
A: Its value is “single digit nM”.

Q: And the “anti-KLH IgG mean percent difference compared to vehicle controls” value (“anti-KLH IgG mean percent difference” for short) ([8]; female rats, study day 19)?
A: The value was −96%.

Q: What about the “anti-KLH IgM mean percent difference compared to vehicle controls” value (shortened to “anti-KLH IgM mean percent difference”) ([8]; female rats, study day 19) of the same molecule?
A: The value was −88%.

Q: What about the “anti-KLH IgG mean percent difference” value ([8]; female rats, study day 21) of the same molecule?
A: Its value is −98%.

Q: And the “anti-KLH IgM mean percent difference” value ([8]; female rats, study day 21)?
A: The value was −75%.

Q: What about the “anti-KLH IgG mean percent difference” value ([8]; female rats, study day 23) of the same molecule?
A: The value was −97%.

Q: And the “anti-KLH IgM mean percent difference” value ([8]; female rats, study day 23)?
A: Its value is −71%.

Q: And the “anti-KLH IgG mean percent difference” value ([8]; female rats, study day 25)?
A: The value was −96%.

Q: What about the “anti-KLH IgM mean percent difference” value ([8]; female rats, study day 25) of the same molecule?
A: Its value is −63%.

Q: What about the “anti-KLH IgG mean percent difference” value ([8]; female rats, study day 36) of the same molecule?
A: Its value is −69%.

Q: And the “anti-KLH IgM mean percent difference” value ([8]; female rats, study day 36)?
A: The value was −67%.

Q: And the “decrease of anti-KLH antibody production after withdrawal of treatment” value ([8]; male and female rats, recovery day 42 and 53)?
A: The value was “reversible”.

Q: What about the “anti-KLH IgG mean percent difference” value ([8]; male rats, study day 19) of the same molecule?
A: Its value is −78%.

Q: What about the “anti-KLH IgM mean percent difference” value ([8]; male rats, study day 19) of the same molecule?
A: Its value is −67%.

Q: And the “anti-KLH IgG mean percent difference” value ([8]; male rats, study day 21)?
A: Its value is −84%.

Q: And the “anti-KLH IgG mean percent difference” value ([8]; male rats, study day 23)?
A: The value was −80%.

Q: And the “anti-KLH IgG mean percent difference” value ([8]; male rats, study day 25)?
A: The value was −83%.

Q: For “BAP049-Clone E: humanized anti-programmed death-1 (PD-1) IgG4 monoclonal antibody; sequences in Table 1”, which Ka [9] is on record?
A: Its Ka is 278000 M⁻¹ s⁻¹.

Q: What about the Kd ([9]; rate constant) of the same molecule?
A: The Kd was 0.000213 s⁻¹.

Q: What about the “Basic charge isoforms (pI)” value [10] of the same molecule?
A: The value was 7.55.

Q: And the “pI of predominant charge isoform” value [10]?
A: Its value is 7.5.

Q: What about the Half-Life ([11]; 46 patients in PK dataset) of the same molecule?
A: The Half-Life was 20 [17, 23] days.

Q: What about the “IIV of CL” value ([11]; 46 patients in PK dataset) of the same molecule?
A: Its value is 62%.

Q: And the “IIV of Half-Life” value ([11]; 46 patients in PK dataset)?
A: The value was 64%.

Q: What about the “IIV of Volume of distribution at SS” value ([11]; 46 patients in PK dataset) of the same molecule?
A: Its value is 22%.

Q: What about the “Volume of distribution at SS” value ([11]; 46 patients in PK dataset) of the same molecule?
A: Its value is 7.2 [6.5, 7.9] L.

Q: And the “patients with Cmin above EC50” value ([11]; flat dose)?
A: Its value is “Over 99.5%”.

Q: What about the “patients with Cmin above EC90” value ([11]; flat dose) of the same molecule?
A: The value was “over 93%”.

Q: What about the CL ([11]; flat dosing schedules, 46 patients in PK dataset) of the same molecule?
A: The CL was 10.9 [8.9, 13.2] mL/h.

B1: BAP049-Clone-E (antibody, human IgG4 S228P, kappa, V domains shown)
VH: EVQLVQSGAEVKKPGESLRISCKGSGYTFTTYWMHWVRQATGQGLEWMGNIYPGTGGSNFDEKFKNRVTITADKSTSTAYMELSSLRSEDTAVYYCTRWTTGTGAYWGQGTTVTVSS
VL: EIVLTQSPATLSLSPGERATLSCKSSQSLLDSGNQKNFLTWYQQKPGQAPRLLIYWASTRESGVPSRFSGSGSGTDFTFTISSLEAEDAATYYCQNDYSYPYTFGQGTKVEIKR
notes: Humanized IgG4(S228P)/kappa; also called Antibody B; exemplary humanized anti-PD-1 antibody
Q: Which results are given for B1?
A: Kd [12]: 0.093 nM; Kd [13]: 0.0827 nM; IC50 [14]: 0.94 nM
